# According to patent publication US20120107277A1, “USE OF THE COMBINATION OF TERIFLUNOMIDE AND INTERFERON BETA FOR TREATING MULTIPLE SCLEROSIS” (SANOFI-AVENTIS U.S LLC, priority 2009, published 2012):
# What was measured:
# Assay type in all cases: in vivo, human
# [1] = tested on: relapsing-remitting multiple sclerosis patient; assay: Brain MRI Gd-enhancing T1-lesions, 48-week double-blind treatment period (Example 2); details: for Patients with >=1 Gd-enhancing T1-lesions post-baseline, No (% of patients; free of T1-Gd lesions): 48 weeks, ITT; for Relative risk reduction in the number of T1-Gd lesions compared with placebo added to IFN-beta / Relative reduction of T1-Gd lesion volume compared to placebo: 48 week; for Relative risk reduction in the number of T1-Gd lesions compared with placebo added to IFN-beta: adjusted
# Description: (§1) A placebo-controlled, double-blinded, randomized, 3-parallel group stratified study was conducted in relapsing-remitting multiple sclerosis patient who were concurrently on a stable dose of interferon beta. The dose level of interferon beta was defined as follows: • Low dose: AVONEX® (interferon beta-1a) 30 mcg once a week intramuscularly, or REBIF® (interferon beta-1a) 22 mcg three times per week subcutaneously. • High dose: REBIF® 44 mcg three times per week subcutaneously, or BETASERON® (interferon beta-1b) 0.25 mg every other day subcutaneously.
# (§2) Design/Methods: 86 of the 116 patients that were randomized to treatment (placebo: 41; 7 mg: 37; 14 mg: 38) for the first 6-months in Example 1 completed this 6-month period and accepted to continue medication for an additional 6-month period (placebo: 31, 7 mg: 28, 14 mg: 27). Safety was evaluated from TEAE, physical exam (every 6 weeks), laboratory data (every 6 weeks), ECG (at the close-out visit), pancreatic ultrasound (at the close-out visit) and brain MRI (at the close-out visit). Relapses were recorded and EDSS was performed every 6-weeks. Annualized relapse rates (ARR) were estimated by a Poisson model adjusted to IFN strata and to geographical regions. The following results report the entire 48-week double-blind treatment period.
# [2] = tested on: relapsing-remitting multiple sclerosis patient; assay: Brain MRI Gd-enhancing T1-lesions, 24-week add-on study (Example 1); details: for Patients with >=1 Gd-enhancing T1-lesions post-baseline, No (% of patients; free of T1-Gd lesions): 24 weeks, ITT; for Relative risk reduction in the number of T1-Gd lesions compared with placebo added to IFN-beta / Relative reduction of T1-Gd lesion volume compared to placebo: 24 week; for Relative risk reduction in the number of T1-Gd lesions compared with placebo added to IFN-beta: adjusted
# Description: as §1
# (§3) Around 40 patients were treated in each treatment group (placebo: 41, 7 mg: 37, and 14 mg: 38). A third of patients in each group were treated with low dose interferon beta 1a. […] The mean age of the study population was 40.1 years. […] The base line Expanded Disability Status Scale (EDSS) score was similar between treatment groups (around 2.5).
# (§4) Safety was evaluated from Treatment Emergent Adverse Event (TEAE), physical examination and laboratory data (e.g. Liver Function Test, every 2-8 weeks), ECG and abdominal ultrasound (24-weeks). Brain MRI (magnetic resonance image) activity, including T1-gadolinium (T1-Gd) with central reading were recorded every 8-week. Relapses were recorded and EDSS was performed at 24-week.
# [3] = tested on: relapsing-remitting multiple sclerosis patient; assay: MS relapse, 48-week double-blind treatment period (Example 2)
# Description: as §1, §2
# [4] = tested on: relapsing-remitting multiple sclerosis patient; assay: MS relapse, 24-week add-on study (Example 1); details: 24 weeks, ITT
# Description: as §1, §3, §4
# [5] = tested on: relapsing-remitting multiple sclerosis patient; assay: Safety (TEAE, laboratory data), 24-week add-on study (Example 1); details: 24 weeks
# Description: as §1, §3, §4
# [6] = tested on: relapsing-remitting multiple sclerosis patient; assay: Safety (TEAE, laboratory data), 48-week double-blind treatment period (Example 2); details: 48 weeks
# Description: as §1, §2
# [7] = 14 mg teriflunomide in addition to stable-dose IFN-beta, p<0.0001
# [8] = 7 mg teriflunomide added to stable-dose interferon beta
# [9] = 14 mg teriflunomide added to stable-dose interferon beta
# [10] = 7 mg teriflunomide added to stable-dose IFN-beta
# [11] = 14 mg teriflunomide added to stable-dose IFN-beta
smiles,measurement,setting,value
"C/C(O)=C(\C#N)C(=O)Nc1ccc(C(F)(F)F)cc1 [teriflunomide, (Z)-2-cyano-3-hydroxy-but-2-enoic acid-(4′-trifluoromethylphenyl)-amide]","Patients with >=1 Gd-enhancing T1-lesions post-baseline, No (% of patients; free of T1-Gd lesions)",[1]; 7 mg teri + IFN-β,69.4%
same,Relative risk reduction in the number of T1-Gd lesions compared with placebo added to IFN-beta,"[1]; 7 mg teriflunomide in addition to stable-dose IFN-beta, p=0.0005",84.6%
same,Relative reduction of T1-Gd lesion volume compared to placebo,"[1]; 7 mg teriflunomide in addition to stable-dose IFN-beta, p=0.1104",72.1%
same,"Patients with >=1 Gd-enhancing T1-lesions post-baseline, No (% of patients; free of T1-Gd lesions)",[1]; 14 mg teri + IFN-β,76.3%
same,Relative risk reduction in the number of T1-Gd lesions compared with placebo added to IFN-beta,[1]; [7],82.8%
same,Relative reduction of T1-Gd lesion volume compared to placebo,"[1]; 14 mg teriflunomide in addition to stable-dose IFN-beta, p=0.0154",70.6%
same,"Patients with >=1 Gd-enhancing T1-lesions post-baseline, No (% of patients; free of T1-Gd lesions)",[2]; 7 mg teri + IFN-β,69.4%
same,Relative risk reduction in the number of T1-Gd lesions compared with placebo added to IFN-beta,"[2]; 7 mg teriflunomide in addition to stable-dose IFN-beta, p=0.0009",82.6%
same,Relative reduction of T1-Gd lesion volume compared to placebo,"[2]; 7 mg teriflunomide in addition to stable-dose IFN-beta, p=0.1931",67.6%
same,"Patients with >=1 Gd-enhancing T1-lesions post-baseline, No (% of patients; free of T1-Gd lesions)",[2]; 14 mg teri + IFN-β,81.6%
same,Relative risk reduction in the number of T1-Gd lesions compared with placebo added to IFN-beta,[2]; [7],84.4%
same,Relative reduction of T1-Gd lesion volume compared to placebo,"[2]; 14 mg teriflunomide in addition to stable-dose IFN-beta, p=0.0072",64.7%
same,Reduction in annualized relapse rate compared to IFN-beta,"[3]; 7 mg teriflunomide in addition to stable-dose IFN-beta, p=0.43",32.6%
same,Reduction in annualized relapse rate compared to IFN-beta,"[3]; 14 mg teriflunomide in addition to stable-dose IFN-beta, p=0.11",57.9%
same,Total number of relapses,"[4]; 7 mg teri + IFN-β, 16.4 patient-years followed",5
same,Total number of relapses,"[4]; 14 mg teri + IFN-β, 17.3 patient-years followed",2
same,Proportion of patients with ALT/SGPT greater than 3xULN,[5]; [8],0%
same,Proportion of patients with TEAE due to increased ALT/SGPT,[5]; [8],13.5%
same,"Proportion of patients with TEAE potentially related to immunosuppression (white blood cell counts, infections and infestations)",[5]; [8],49%
same,"Upper respiratory tract infections (nasopharyngitis, sinusitis), proportion of patients",[5]; [8],10.8%
same,Proportion of patients with ALT/SGPT greater than 3xULN,[5]; [9],5.3%
same,Proportion of patients with TEAE due to increased ALT/SGPT,[5]; [9],28.9%
same,"Proportion of patients with TEAE potentially related to immunosuppression (white blood cell counts, infections and infestations)",[5]; [9],50%
same,"Upper respiratory tract infections (nasopharyngitis, sinusitis), proportion of patients",[5]; [9],23.7%
same,Concomitant bilirubin increase (with ALT/SGPT increase),"[5]; all groups, 7 mg or 14 mg teriflunomide added to stable-dose interferon beta",no case
same,Patients with ALT increased above 3ULN without concomitant increase in bilirubin (number),[6]; [10],1
same,TEAE all gastrointestinal disorders,[6]; [10],18.9%
same,TEAE all type of headaches,[6]; [10],5.4%
same,TEAE upper respiratory tract infections as a whole,[6]; [10],16.2%
same,TEAEs that led to treatment discontinuation (number),[6]; [10],3
same,White blood cell counts decreases (number),[6]; [10],3
same,Patients with ALT increased above 3ULN without concomitant increase in bilirubin (number),[6]; [11],3
same,TEAE all gastrointestinal disorders,[6]; [11],31.6%
same,TEAE all type of headaches,[6]; [11],18.4%
same,TEAE upper respiratory tract infections as a whole,[6]; [11],23.7%
same,TEAEs that led to treatment discontinuation (number),[6]; [11],3
same,White blood cell counts decreases (number),[6]; [11],4
